According to patent US12606533B2, “3-phenylpropylamine derivative” (DAIICHI SANKYO COMPANY, LIMITED, priority 2023, dated 2026):

Legend:
[1] = tested on: NCI-H295R cells; experiment: Proliferation inhibitory action on NCI-H295R (CellTiter-Glo, 7 days); type: cell-based, human; conditions: Homo sapiens, NCI-H295R, 168 h
Procedure, shortened: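 Compounds serially diluted in DMSO; cells seeded at 2×10^3 cells/well and cultured 7 days at 37° C, 5% CO2. CellTiter-Glo 2.0 luminescence read at day 0 and day 7; proliferation rate derived from compound-addition-day signal, untreated day-7 signal and treated day-7 signal.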

[2] = target: T1, SF-1 (Homo sapiens, UniProt Q13285); experiment: SF1 degradation induction in NCI-H295R SF-1-HiBiT cells (HiBiT DC50); type: cell-based; conditions: 24 hr, concentration that induces 50% degradation of SF-1
T1 construct: NCI-H295R SF-1-HiBiT cells with HiBiT tag knocked in at the endogenous SF1 locus; host or cells: NCI-H295R SF-1-HiBiT (knock-in at endogenous locus)
Procedure, shortened: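 NCI-H295R cells carrying HiBiT-tagged SF-1, plated and grown 24 hr, then exposed to serially diluted compounds for 24 hr at 37° C. Remaining SF-1 read by lytic HiBiT luminescence; degradation rate from treated vs compound-free signal, DC50 as concentration giving 50% degradation.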

SMILES	GI50 [1] [nM]	DC50 [2] [nM]
COc1ccc([C@]2(CCN(Cc3ccc(C4=CC[C@H](CN5CCN(C(=O)c6ccc7c8c6OCCn8c(=O)n7C6CCC(=O)NC6=O)CC5)CC4)cc3)CC(C)(C)C(F)(F)F)CCOC(C)(C)C2)cc1 (stereo partly drawn) [BU6, 3-{7-[(4-{[(4R)-4′-{[{2-[(4R)-4-(4-Methoxyphenyl)-2,2-dimethyltetrahydro-2H-pyran-4-yl]ethyl}(3,3,3-trifluoro-2,2-dimethylpropyl)amino]methyl}-2,3,4,5-tetrahydro[biphenyl]-4-yl]methyl}piperazin-1-yl)carbonyl]-2-oxo-4,5-dihydroimidazo[1,5,4-de][1,4]benzoxazin-1(2H)-yl}piperidine-2,6-dione]	64	18
COc1ccc([C@]2(CCN(Cc3ccc(C4=CC[C@H](C(=O)N5CC(Nc6ccc7c8c6CCCn8c(=O)n7C6CCC(=O)NC6=O)C5)CC4)c(F)c3)CC(C)(C)C(F)(F)F)CCOC(C)(C)C2)cc1 (stereo partly drawn) [BW3, 3-{7-[(1-{[(4R)-2′-Fluoro-4′-{[{2-[(4R)-4-(4-methoxyphenyl)-2,2-dimethyltetrahydro-2H-pyran-4-yl]ethyl}(3,3,3-trifluoro-2,2-dimethylpropyl)amino]methyl}-2,3,4,5-tetrahydro[biphenyl]-4-yl]carbonyl}azetidin-3-yl)amino]-2-oxo-5,6-dihydro-4H-imidazo[4,5,1-ij]quinolin-1(2H)-yl}piperidine-2,6-dione]	86	9.1
COc1ccc([C@]2(CCN(Cc3ccc(C4=CC[C@H](C(=O)N5CCC(Nc6ccc7c(c6F)n(C)c(=O)n7C6CCC(=O)NC6=O)CC5)CC4)c(F)c3)CC(C)(C)C(F)(F)F)CCOC(C)(C)C2)cc1 (stereo partly drawn) [BX6, 3-{4-Fluoro-5-[(1-{[(4R)-2′-fluoro-4′-{[{2-[(4R)-4-(4-methoxyphenyl)-2,2-dimethyltetrahydro-2H-pyran-4-yl]ethyl}(3,3,3-trifluoro-2,2-dimethylpropyl)amino]methyl}-2,3,4,5-tetrahydro[biphenyl]-4-yl]carbonyl}piperidin-4-yl)amino]-3-methyl-2-oxo-2,3-dihydro-1H-benzimidazol-1-yl}piperidine-2,6-dione]	52	7.1

Continued by falling GI50 [1], values first:

GI50 [1] [nM]	DC50 [2] [nM]	SMILES
48	5.5	COc1ccc([C@]2(CCN(CC(C)(C)C(F)(F)F)C[C@H]3CC[C@H](c4ccc(NC(=O)N5CCC(Nc6ccc7c(c6)n(C)c(=O)n7C6CCC(=O)NC6=O)CC5)cc4)CC3)CCOC(C)(C)C2)cc1 (stereo partly drawn) [CA1, 4-{[1-(2,6-Dioxopiperidin-3-yl)-3-methyl-2-oxo-2,3-dihydro-1H-benzimidazol-5-yl]amino}-N-[4-(trans-4-{[{2-[(4R)-4-(4-methoxyphenyl)-2,2-dimethyltetrahydro-2H-pyran-4-yl]ethyl) (3,3,3-trifluoro-2,2-dimethylpropyl)amino]methyl}cyclohexyl)phenyl]piperidine-1-carboxamide]
27	4	COc1ccc([C@]2(CCN(Cc3ccc(C4=CC[C@@H](CN5CCN(C(=O)c6ccc7c8c6NCCn8c(=O)n7C6CCC(=O)NC6=O)CC5)CC4)cc3)CC(C)(C)C(F)(F)F)CCOC(C)(C)C2)cc1 (stereo partly drawn) [BZ7, 3-{7-[(4-{[(4S)-4′-{[{2-[(4R)-4-(4-Methoxyphenyl)-2,2-dimethyltetrahydro-2H-pyran-4-yl]ethyl}(3,3,3-trifluoro-2,2-dimethylpropyl)amino]methyl)-2,3,4,5-tetrahydro[biphenyl]-4-yl]methyl}piperazin-1-yl)carbonyl]-2-oxo-5,6-dihydro-4H-imidazo[1,5,4-de]quinoxalin-1(2H)-yl}piperidine-2,6-dione]
